In patent publication US20250075278A1, “EPIGENTIC REGULATION AND CO-TARGETING APPROACHES OF PSMA IN PROSTRATE CANCER” (Fred Hutchinson Cancer Center, priority 2023, published 2025):
Entries after “also recorded” stand apart in the source; their conditions may differ.

Experiments:
[1] = tested on: DU145, LAPC4, and LuCaP 35CR CL; test: PSMA protein expression in cell line models treated with epigenetic modifiers (flow cytometry and fluorescence immunocytochemistry); assay type: cell-based; settings: for PSMA expression after HDACi treatment: in vitro and in vivo
Experimental: Cell lines and in vitro experiments. […] All drugs were diluted in DMSO.
To this end, 3 cell line models (DU145, LAPC4, and LuCaP 35CR CL) were treated with the DNMTi decitabine and pan-HDACi (panobinostat, CUDC-907, vorinostat) and applied 2 orthogonal approaches (flow cytometry and fluorescence immunocytochemistry) and 2 separate monoclonal antibodies (3E6 and LNI-17) to measure PSMA protein expression.

LuCaP 35CR xenografts = test: PSMA IHC of LuCaP 35CR PDX tumors grown in treated mice; assay type: in vivo; settings: LuCaP 35CR PDX in castrated CB17SCID mice, 75 mg/kg/day, 21 days, vs 30% Captisol control
Experimental: In vivo experiments. All surgical procedures were performed under isoflurane anesthesia. LuCaP 35CR tumors (1 mm3) were surgically implanted s.c. into castrated male CB17SCID mice (The Jackson Laboratory) (59). When tumors reached a volume between 150 mm3 and 200 mm3, mice were administered CUDC-907 (Curis Inc.), a combined pan-HDAC/PI3K inhibitor dissolved in 30% captisol (Thermo Fisher Scientific). Treated mice received 75 mg/kg/day for 5 days, followed by 2 days off treatment, repeated for a total of 21 days or until the diameter of the tumor reached 2 cm. The same volume of 30% captisol, in the same manner as described above, was used to treat the vehicle group. […]
IHC staining. […] Immunocomplexes were detected using PV poly-HRP anti-mouse IgG (Leica Microsystems, PV6114) with DAB as the chromogen. […] Immunocomplexes were detected using the Biotin XX Tyramide SuperBoost kit (Invitrogen, B40931) per manufacturer's protocol with DAB as the chromogen. […] Immunocomplexes were detected using Tyramide Signal Amplification system from Thermo Fisher Scientific. […] Membranous PSMA expression was scored in a blinded manner by 2 pathologists, whereby the optical density level (“0” for no brown color, “1” for faint and fine brown chromogen deposition, and “2” for prominent chromogen deposition) was multiplied by the percentage of cells at each staining level, resulting in a total score range of 0-200. […]

Row | Compound | PSMA re-expression (density plot, FIG. 5H) ([1]; 10 μM, cell line not stated) | PSMA expression after HDACi treatment [1] | PSMA expression in tumors (IHC, PSMA-positive cells) (LuCaP 35CR xenografts)
1 | O=C(CNc1cccc2c1C(=O)N(C1CCC(=O)NC1=O)C2=O)NCCCOc1ccc(NC(=O)c2ccc(CN(C(=O)c3ccc4c(c3)OCC(=O)N4)C3CC3)cc2)nc1 (stereo not shown) [MS159] | PSMA re-expression |  | 
2 | O=C(CCCCCCC(=O)Nc1ccccc1)NO [vorinostat] |  | significant upregulation of PSMA expression | 
3 | COc1ccc(-c2nc(N3CCOCC3)c3sc(CN(C)c4ncc(C(=O)NO)cn4)cc3n2)cn1 [CUDC-907] |  | significant upregulation of PSMA expression | significantly increased PSMA expression; also recorded: enhanced PSMA expression
